Patent US5434292A, “Phenylalkanoic acid derivatives, process for producing the same and process for separating optical isomers thereof” (Hisamitsu Pharmaceutical Co., Inc., priority 1994, dated 1995)
Read-outs that look alike come from different tables or passages of the source.

What was measured:
Assay type in all cases: in vivo, Wistar-strain male rats
[1] = tested on: Carrageenin-induced paw edema; assay: Carrageenin-induced paw edema experiment using rats; conditions: Rattus norvegicus, 3 h; for inhibition in vivo at 0.2 mg/kg / inhibition in vivo at 0.5 mg/kg / ED50: oral; for inhibition in vivo at 0.2 mg/kg / inhibition in vivo at 0.5 mg/kg: three hours after induction, vs control; for ED50: edema inhibition three hours after induction
Method: Pharmacological Experiment 1 (Carrageenin-induced paw edema experiment using rats)
There were used groups each consisting of seven Wistar-strain male rats each weighing about 150 g as test animals (subjects). One hour later than said administration, 0.1 ml of 1%λ-carrageenin was hypodermically injected to the paw of right hind leg of each of the test animals to induce the reaction. Thereafter, each test animal so injected was measured for its paw volume with the lapse of time.
The experimental results were indicated in terms of edema inhibition rates and effective doses (ED50) found by comparing the edema rate of each test rat with that of each rat of the control group (to which no test compounds were orally administered) three hours after having induced the reaction.

adjuvant arthritis = assay: Adjuvant arthritis experiment using rats; conditions: oral; for ED50: Rattus norvegicus, 168 h, once a day for 7 days
Method: Pharmacological Experiment 4 (Adjuvant arthritis experiment using rats)
0.6 mg/0.1 ml of Mycobacterium butyricum suspended in liquid paraffin were subcutaneously administered to the root of the tall of each of Wistar-strain male rats each weighing about 200 g (for the compound of Example 2 and comparative compound 1) or 240 g (for the compound of Example 24 and comparative compounds 4 and 5). […] The test compounds were orally administered once a day for 7 days to the selected rats in the predetermined doses, respectively, as indicated in the following Table 7. The inhibitory effect on the adjuvant arthritis was investigated referring, as a guide to the investigation, to the inhibition effect on swelling of the hind paws of each of the tested rats. In each of the tested rats, the inhibition rate was calculated by comparing the swelling volume ratio of the tested rat determined by the following formula with that of each rat of the control group (to which no test compounds were orally administered).
Swelling volume ratio = {(paw volume measured
26 days (*a) after the subcutaneous administration) -
(original or normal paw volume)}/{(paw volume
measured 19 days (*b) after the subcutaneous
administration) - (original or normal paw volume)} × 100
*a: 24 days later, for the compound of Example 24 and comparative
*b: 17 days later, for the compound of Example 24 and comparative

[2] = tested on: threshold of pain of the paws; assay: Randall-Selitto method using rats (yeast-induced inflammatory pain); conditions: oral; for ED50: Rattus norvegicus, analgesic effect; for Inhibition rate: area under the curve of pain threshold vs control
Method: Pharmacological Experiment 2 (Randall-Selitto method using rats as subjects)
There were used groups each consisting of seven Wistar-strain male rats each weighing about 140 g. The rats were hypodermically injected with 0.1 ml of 20% yeast suspension at the paw of their right hind leg to induce inflammatory edema, and the threshold of pain of the paws was measured with the lapse of time in accordance with the Randall-Selitto method. Three hours after the reaction had been induced, the dose of the test compounds was orally administered to each rat as shown in the following Table 5.
In Table 5, the results were expressed in terms of inhibition rates and effective amounts (ED50) for the tested groups with respect to those of the control group (to which the compound was not orally administered) after the area under the curve had been measured subsequently to the administration.

[3] = Gastric mucous membrane trouble experiment using rats; conditions: rat, in vivo
Method: (§1) Pharmacological Experiment 3 (Gastric mucous membrane trouble experiment using rats)
(§2) There were used groups each consisting of eight Wistar-strain male rats each weighing about 160 g as test animals (subjects). The test compounds were orally administered to the test animals in the predetermined doses, respectively, as indicated in the following Table 6 after their fasting for 18 hours. Thirty five hours later than said administration, the rats so administered were dissected to remove therefrom the stomachs each of which was then fixed, cut along the greater curvature thereof and visually observed to find whether ulcers were formed therein. Further, 50% gastric ulcer-inducing doses (UD50) were determined.

Gastric mucous membrane = assay: as above; conditions: oral, 3.0 mg/kg; fasted 18 hours; groups of eight rats
Method: as §1, §2

[4] = read-out: Inhibition rate (edema inhibition rate)
[5] = 1.0 mg/kg once a day for 7 days

SMILES	inhibition in vivo at 0.2 mg/kg [1, 4]	inhibition in vivo at 0.5 mg/kg [1, 4]	Inhibition rate ([2]; 1.0 mg/kg)	also measured
CC(C(=O)O)c1ccc(C[C@@H]2CCCC[C@H]2O)c(Cl)c1 (relative stereo) [Example 24, 2-[3-chloro-4-(trans-2-hydroxycyclohexane-1-ylmethyl)phenyl]propionic acid]	33.4%	47.1%	–	Inhibition rate (swelling of hind paws) (adjuvant arthritis; 0.1 mg/kg once a day for 7 days): 34.2%; Inhibition rate (swelling of hind paws) (adjuvant arthritis; 0.3 mg/kg once a day for 7 days): 49.9%; Inhibition rate (swelling of hind paws) (adjuvant arthritis; [5]): 65.9%
CC(C(=O)O)c1ccc(C[C@H]2CCCC[C@@H]2O)c(F)c1 (relative stereo) [Example 31]	–	54%	–	–
CC(C(=O)O)c1ccc(C[C@H]2CCCC[C@H]2O)c(F)c1 (relative stereo) [Example 32]	–	37.9%	–	–
CC(C(=O)O)c1ccc(C[C@@H]2CCC[C@H]2O)c(Cl)c1 (relative stereo) [Example 40, 2-[3-chloro-4-(trans-2-hydroxycyclopentane-1-ylmethyl)phenyl] propionic acid]	34.5%	56.3%	–	–
CC(C(=O)O)c1ccc(C[C@H]2CCC[C@@H]2O)c(F)c1 (relative stereo) [Example 46]	–	60.5%	–	–
CC(C(=O)O)c1ccc(C[C@H]2CCC[C@H]2O)c(F)c1 (relative stereo) [Example 47]	–	45.6%	–	–
CC(C(=O)O)c1ccc(C[C@@H]2CCCC[C@H]2O)cc1 (relative stereo) [compound 5, 2[4-(trans-2-hydroxycyclohexane-1-ylmethyl)phenyl]propionic acid, reference compound]	–	33.7%	–	Inhibition rate (swelling of hind paws) (adjuvant arthritis; 3.0 mg/kg once a day for 7 days): 42.7%; Inhibition rate (swelling of hind paws) (adjuvant arthritis; 10.0 mg/kg once a day for 7 days): 56.4%
CC(C(=O)O)c1ccc(C[C@@H]2CCC[C@H]2O)cc1 (relative stereo) [compound 6, 2[4-(trans-2-hydroxycyclopentane-1-ylmethyl)phenyl]propionic acid, reference compound]	22.5%	38.5%	–	–
CC(C(=O)O)c1ccc(CC2CCCCC2=O)c(Cl)c1 (stereo not drawn) [Example 2, 2-[3-chloro-4-(2-oxocyclohexane-1-ylmethyl)phenyl]propionic acid]	21.8%	49.5%	75.1%	ED50 [1]: 0.6 mg/kg; ED50 [2]: 0.3 mg/kg; Inhibition rate ([2]; 0.3 mg/kg): 54.3%; ED50 (adjuvant arthritis): 0.5 mg/kg; Inhibition rate (swelling of hind paws) (adjuvant arthritis; [5]): 62.1%; TD50 at 35 h ([3]; po): 5.6 mg/kg; Ulcer formation (incidence) (Gastric mucous membrane): 2/8
CC(C(=O)O)c1ccc(CC2CCCC2=O)c(Cl)c1 (stereo not drawn) [Example 3, 2-[3-chloro-4-(2-oxocyclopentane-1-ylmethyl)phenyl]propionic acid]	20.2%	48.5%	69.3%	Inhibition rate ([2]; 0.3 mg/kg): 44.7%
CC(C(=O)O)c1ccc(CC2CCCC2=O)c(F)c1 (stereo not drawn) [Example 6]	–	52.2%	–	Ulcer formation (incidence) (Gastric mucous membrane): 1/8
CC(C(=O)O)c1ccc(CC2CCCCC2=O)c(F)c1 (stereo not drawn) [Example 10]	–	50.2%	–	–
CC(C(=O)O)c1ccc(C[C@H]2CCCC[C@@H]2O)c(Cl)c1 (stereo partly drawn) [Example 28, 2-[3-chloro-4-(trans-(1R, 2S)-2-hydroxycyclohexane-1-yl-methyl)phenyl]propionic acid]	38.3%	54.8%	80.9%	Inhibition rate ([2]; 0.3 mg/kg): 62.5%
CC(C(=O)O)c1ccc(C[C@H]2CCC[C@@H]2O)c(Cl)c1 (stereo partly drawn) [Example 44, 2-[3-chloro-4-(trans-(1R, 2S)-2-hydroxycyclopentane-1-ylmethyl)phenyl]propionic acid]	42.2%	65.5%	–	–
CC(C(=O)O)c1ccc(CC2CCCC2=O)cc1 (stereo not drawn) [compound 1, Loxoprofen, reference compound]	–	23.9%	49.7%	ED50 [1]: 1.5 mg/kg; ED50 [2]: 1.5 mg/kg; ED50 (adjuvant arthritis): 8.1 mg/kg; Inhibition rate (swelling of hind paws) (adjuvant arthritis; [5]): 1.3%; TD50 at 35 h ([3]; oral, fasted 18 hours, read-out: UD50 (50% gastric ulcer-inducing dose)): 4.7 mg/kg; Ulcer formation (incidence) (Gastric mucous membrane): 4/8
CC(C(=O)O)c1ccc(CC2CCCCC2=O)cc1 (stereo not drawn) [compound 2, 2[4-(2-oxocyclohexane-1-ylmethyl)phenyl]propionic acid, reference compound]	–	27.1%	44.3%	–
CC(C(=O)O)c1ccc(CC2CCCC2)c(Cl)c1 (stereo not drawn) [compound 3, 2(3-chloro-4-cyclopentylmethylphenyl)propionic acid, reference compound]	–	10.2%	18.4%	–
COc1ccc2c(c1)c(CC(=O)O)c(C)n2C(=O)c1ccc(Cl)cc1 [compound 4, Indomethacin, reference compound]	–	–	–	inhibition in vivo at 5 mg/kg ([1]; po, read-out: Inhibition rate (edema inhibition rate)): 51.3%; Inhibition rate ([2]; 5.0 mg/kg): 76.3%; Inhibition rate (swelling of hind paws) (adjuvant arthritis; [5]): 58.7%
